Laboratory results: patent US8552208B2, “Analogs of tetramic acid” (University of Tennesseee Research Foundation, priority 2007, dated 2013)
Values after ≈ are worked out from the molar mass of the structure shown. Values joined by “and” are separate entries in the source; they are usually repeats but may differ in a detail not shown here. Equal entries are not always repeated. Where two headings read alike, the source gives them in different places.

Columns and labels:
[1] = system: MRSA (ATCC 35391) biofilm; experiment: Calgary Biofilm Device anti-biofilm activity; format: cell-based, Staphylococcus aureus; details: Staphylococcus aureus, triplicate runs listed singly; for MIC: read-out: MBIC = Minimum Biofilm Inhibitory Concentration
[2] = system: Bacillus anthracis Sterne 34F2; experiment: microbe, parasite or virus in culture; format: cell-based; details: STERNE34F2, read-out: MIC, BA
[3] = system: S. epidermidis (RP62A) biofilm; experiment: Calgary Biofilm Device anti-biofilm activity; format: cell-based; details: Staphylococcus epidermidis, S. epidermidis biofilm, triplicate runs listed singly; for MBC: read-out: MBEC = Minimum Biofilm Eradication Concentration; for MIC: read-out: MBIC = Minimum Biofilm Inhibitory Concentration
[4] = system: Bacillus subtilis ATCC 23857; experiment: Antibacterial activity assay (MIC, broth dilution); format: cell-based
[5] = system: Vero monkey kidney cell line (ATCC, CCL-81); experiment: Cytotoxicity assay (MTT); format: cell-based; details: IC50 divided by MIC against S. aureus 8325
How it was run: (§1)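 Vero cells seeded ~10^6 cells/mL and pre-incubated 18 h, then exposed to compounds at 400-0.024 μg/mL for 72 h at 37 °C, 5% CO2; 0.1% Triton X-100 as full-kill control. MTT added 3 h, formazan read at 570 nm after lysis; IC50 from percent activity vs log10 concentration curves.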

Cytotoxicity assay (MTT) = format: cell-based, monkey; details: monkey, Vero monkey kidney cells (ATCC CCL-81); Vero cells, 72 hours, MTT; read-out: IC50 (Cytotoxicity): Concentration which reduces viability of Vero kidney cells by 50%
How it was run: as §1

[6] = system: Propionibacterium acnes ATCC 6919; experiment: Antibacterial activity assay (MIC, broth dilution); format: cell-based; details: Cutibacterium acnes
[7] = system: MSSA (ATCC 25293) biofilm; experiment: Calgary Biofilm Device anti-biofilm activity; format: cell-based; details: Staphylococcus aureus; for MBC: read-out: MBEC = Minimum Biofilm Eradication Concentration; for MIC: read-out: MBIC = Minimum Biofilm Inhibitory Concentration
[8] = system: Streptococcus pyogenes ATCC 700294; experiment: Antibacterial activity assay (MIC, broth dilution); format: cell-based
[9] = system: Methicillin sensitive Staphylococcus aureus 8325 ATCC 35556; experiment: Antibacterial activity assay (MIC, broth dilution); format: cell-based; details: ATCC 35556 / MSSA, read-out: MIC, MSSA
[10] = system: Methicillin Resistant Staphylococcus aureus ATCC 33591; experiment: Antibacterial activity assay (MIC, broth dilution); format: cell-based; details: ATCC 33591 / MRSA, read-out: MIC, MRSA
[11] = system: Mycobacterium tuberculosis H37 Rv; experiment: Antibacterial activity assay (MIC, broth dilution); format: cell-based; details: H37RV, 168 h, read-out: MIC, TB
[12] = system: methicillin-sensitive S. aureus ATCC 29213; experiment: Superficial skin infection model in mice; format: in vivo, Balb/c mice; details: topical, twice daily for three days, bacteria in lesions on day 5, placebo 8.15 +/− 0.37
Description: Compounds of the invention were tested for the ability to treat skin infections utilizing an established animal model of skin infection. The superficial skin infection model used in this study was previously developed by Kugelberg et al, “Establishment of a Superficial Skin Infection Model in Mice using Staphylococcus aureus and Streptococcus pyogenes”, Antimicrob. Agents Chemother., 49(8):3435-3441 (2005).
Superficial infections in Balb/c mice (male) were caused by first removing hair from the backs of mice with an electric shaver, followed by dry shaving with a razor and tape stripping with Tensoplast® (BSN Medical Inc., Charlotte, N.C.) adhesive bandage to remove the epidermis, followed by infection with a 5 μl bacterial suspension containing about 10^7 bacterial cells of methicillin-sensitive S. aureus ATCC 29213, a strain from a previous isolate from a human wound infection and used in other murine infection studies. After 4 hours of infection, treatment was started by administering 45-50 mg of ointment containing (i) vehicle hydrophilic petrolatum (placebo) (ii) 2% w/w mupirocin ointment (Bactroban®, GlaxoSmithKline plc., United Kingdom) in vehicle or (iii) 2% tetramic acid analogue of the invention (13b) in vehicle, (iv) 10% tetramic acid analogue of the invention (13b) in vehicle, (v) 2% tetramic acid analogue of the invention (13l) in vehicle, or (vi) 10% tetramic acid analogue of the invention (13l) in vehicle. Treatment was continued for three days with drug application twice daily at 8 hour intervals. On day 5, mice were sacrificed and the numbers of bacteria in lesions were enumerated.
This conclusion stems from statistical analysis of the resulting means by one way ANOVA followed by Tukey's test at P<0.01 with Placebo as the control group. Therefore, the tetramic acid analogues of the invention have the potential to be used clinically for the treatment of skin infections, such as those caused by Staphylococcus aureus.

[13] = system: clinical isolates of MRSA (methicillin resistant S. aureus); format: cell-based
[14] = system: Streptococcus pneumoniae DAW30EC; experiment: Antibacterial activity assay (MIC, broth dilution); format: cell-based; details: read-out: MIC, SPn
[15] = system: Enterococcus faecalis ATCC 33186; experiment: Antibacterial activity assay (MIC, broth dilution); format: cell-based
[16] = system: clinical isolates of MSSA (methicillin sensitive S. aureus); format: cell-based
Staphylococcus aureus = experiment: Selection of single-step resistant mutants; format: cell-based; details: from a population of 10^10 cells
[17] = MSSA biofilm, triplicate runs listed singly

`CCCCCCCCCCN1C(=O)/C(=C(/C)O)C(=O)[C@@H]1CC(C)C` [Compound 13b, (S,Z)-1-decyl-3-(1-hydroxyethylidene)-5-isobutylpyrrolidine-2,4-dione] showed an MIC ([1]; MRSA biofilm) of 0.8 µg/mL (≈ 2.37 µM), an MBC ([1]; read-out: MBEC = Minimum Biofilm Eradication Concentration, MRSA biofilm) of 6.25 µg/mL (≈ 18.5 µM) and an MIC [2] of 0.8 µg/mL (≈ 2.37 µM). The MBC [3] was 50 µg/mL (≈ 148 µM), the MIC [3] was 0.4 µg/mL (≈ 1.19 µM) and the MIC ([4]; ATCC23857, Bacillus subtilis ATCC 23857, read-out: MIC, BS) was 0.8 µg/mL (≈ 2.37 µM). For the same molecule, the “IC50/MIC = Selectivity (therapeutic) index” value [5] was 36.8, the IC50 at 72 h (Cytotoxicity assay (MTT)) was 14.7 µg/mL and the MIC ([6]; ATCC6919, Propionibacterium acnes ATCC 6919, read-out: MIC, PA) was 0.8 µg/mL (≈ 2.37 µM). The MBC [7, 17] was 100 µg/mL (≈ 296 µM), the MIC [7, 17] was 0.8 µg/mL (≈ 2.37 µM) and the MIC ([8]; ATCC700294, Streptococcus pyogenes ATCC 700294, read-out: MIC, SP) was 50 µg/mL (≈ 148 µM). For the same molecule, the MIC ([9]; Methicillin sensitive Staphylococcus aureus 8325 ATCC 35556) was 0.4 µg/mL (≈ 1.19 µM), the MIC [10] was 0.8 µg/mL (≈ 2.37 µM) and the MIC ([11]; Mycobacterium tuberculosis H37 Rv, […]) was 12.5 µg/mL (≈ 37 µM). For the same molecule, the “Mean Bacterial Count (log10) +/− SD” value ([12]; 2% ointment) was 8.08 +/− 0.28 log10, the “Mean Bacterial Count (log10) +/− SD” value ([12]; 10% ointment) was 6.47 +/− 0.58 log10 and the “Antibiotic MIC” value ([13]; isolate MRSA-1) was 0.8 µg/mL. The “Antibiotic MIC” value ([13]; isolate MRSA-2) was 0.8 µg/mL, the “Antibiotic MIC” value ([13]; isolate MRSA-3) was 0.8 µg/mL and the “Antibiotic MIC” value ([13]; isolate MRSA-4) was 0.8 µg/mL. The “Antibiotic MIC” value ([13]; isolate MRSA-5) was 0.8 µg/mL, the “Antibiotic MIC” value ([13]; isolate MRSA-6) was 1.6 µg/mL and the “Antibiotic MIC” value ([13]; isolate MRSA-7) was 0.8 µg/mL. For the same molecule, the “Antibiotic MIC” value ([13]; isolate MRSA-8) was 0.4 µg/mL, the “Antibiotic MIC” value ([13]; isolate MRSA-9) was 0.8 µg/mL and the “Antibiotic MIC” value ([13]; isolate MRSA-10) was 0.8 µg/mL. The MIC ([14]; Streptococcus pneumoniae DAW30EC) was 6.25 µg/mL (≈ 18.5 µM), the MIC ([15]; ATCC33186, Enterococcus faecalis ATCC 33186, read-out: MIC, EF) was 1.6 µg/mL (≈ 4.74 µM) and the “Antibiotic MIC” value ([16]; isolate MSSA-11) was 0.8 µg/mL. For the same molecule, the “Antibiotic MIC” value ([16]; isolate MSSA-12) was 0.4 µg/mL, the “Antibiotic MIC” value ([16]; isolate MSSA-13) was 0.4 µg/mL and the “Antibiotic MIC” value ([16]; isolate MSSA-14) was 0.4 µg/mL. For the same molecule, the “Antibiotic MIC” value ([16]; isolate MSSA-15) was 0.4 µg/mL, the “Antibiotic MIC” value ([16]; isolate MSSA-16) was 0.4 µg/mL and the “Antibiotic MIC” value ([16]; isolate MSSA-17) was 0.4 µg/mL. The “Antibiotic MIC” value ([16]; isolate MSSA-18) was 0.4 µg/mL, the “Antibiotic MIC” value ([16]; isolate MSSA-19) was 0.4 µg/mL and the “Antibiotic MIC” value ([16]; isolate MSSA-20) was 0.8 µg/mL. The “single-step mutants resistant to the compound” value (Staphylococcus aureus) was “could not be obtained”.
For `C/C(O)=C1\C(=O)[C@H](CC(C)C)N(CC2=CCC3CC2C3(C)C)C1=O` (stereo partly drawn) [Compound 13l, (5S,Z)-1-((6,6-dimethylbicyclo[3.1.1]hept-2-en-2-yl)methyl)-3-(1-hydroxyethylidene)-5-isobutylpyrrolidine-2,4-dione], the MBC ([1]; MRSA biofilm, read-out: MBEC = Minimum Biofilm Eradication Concentration) was > 400 µg/mL, the MIC ([1]; MRSA biofilm) was 1.6 µg/mL (≈ 4.83 µM) and the MIC [2] was 0.8 µg/mL (≈ 2.41 µM). The MBC [3] was > 400 µg/mL, the MIC [3] was 1.6 µg/mL (≈ 4.83 µM) and the MIC ([4]; Bacillus subtilis, ATCC23857, read-out: MIC, BS) was 1.6 µg/mL (≈ 4.83 µM). The “IC50/MIC = Selectivity (therapeutic) index” value [5] was 22.1, the IC50 at 72 h (Cytotoxicity assay (MTT)) was 35.4 µg/mL and the MIC ([6]; ATCC6919, read-out: MIC, PA) was 0.8 µg/mL (≈ 2.41 µM). For the same molecule, the MBC [7, 17] was > 400 µg/mL, the MIC [7] was 3.12 µg/mL (≈ 9.41 µM) and the MIC ([8]; Streptococcus pyogenes, ATCC700294, read-out: MIC, SP) was 25 µg/mL (≈ 75.4 µM). For the same molecule, the MIC ([9]; Staphylococcus aureus) was 1.6 µg/mL (≈ 4.83 µM), the MIC [10] was 1.6 µg/mL (≈ 4.83 µM) and the MIC ([11]; Mycobacterium tuberculosis) was 100 µg/mL (≈ 302 µM). For the same molecule, the “Mean Bacterial Count (log10) +/− SD” value ([12]; 2% ointment) was 7.67 +/− 0.21 log10, the “Mean Bacterial Count (log10) +/− SD” value ([12]; 10% ointment) was 6.51 +/− 0.67 log10 and the “Antibiotic MIC” value ([13]; isolate MRSA-1) was 3.12 µg/mL. The “Antibiotic MIC” value ([13]; isolate MRSA-2) was 3.12 µg/mL, the “Antibiotic MIC” value ([13]; isolate MRSA-3) was 3.12 µg/mL and the “Antibiotic MIC” value ([13]; isolate MRSA-4) was 3.12 µg/mL. For the same molecule, the “Antibiotic MIC” value ([13]; isolate MRSA-5) was 3.12 µg/mL, the “Antibiotic MIC” value ([13]; isolate MRSA-6) was 3.12 µg/mL and the “Antibiotic MIC” value ([13]; isolate MRSA-7) was 3.12 µg/mL. The “Antibiotic MIC” value ([13]; isolate MRSA-8) was 0.4 µg/mL, the “Antibiotic MIC” value ([13]; isolate MRSA-9) was 3.12 µg/mL and the “Antibiotic MIC” value ([13]; isolate MRSA-10) was 3.12 µg/mL. For the same molecule, the MIC ([14]; Streptococcus pneumoniae, DAW30EC) was 50 µg/mL (≈ 151 µM), the MIC ([15]; Enterococcus faecalis, ATCC33186, read-out: MIC, EF) was 1.6 µg/mL (≈ 4.83 µM) and the “Antibiotic MIC” value [16] was 3.2 µg/mL and 1.6 µg/mL.
